{
  "source": "paper PMC10545747",
  "about": "“Development of cyclopeptide inhibitors of cGAS targeting protein-DNA interaction and phase separation” (Nature Communications, 2023)",
  "key": {"[1]": {"system": "dsDNA-stimulated THP1 cells", "experiment": "qPCR of IFNB1/CXCL10/IL6 mRNA in THP1 cells stimulated by dsDNA (ISD, HSV60mer)", "assay_type": "cell-based, human", "details": "as stated in the rebuttal letter; cellular assays", "description": "To screen direct cGAS inhibitors targeting protein-DNA interface from our developed focused library of macrocyclic peptides, we applied an RNA-based fluorescent biosensor for 2’,3’-cGAMP to detect cGAS activity in vitro (Supplementary Fig. 1a)[49]. The formation of 2’,3’-cGAMP from ATP and GTP was catalyzed by recombinant human cGAS enzyme (hcGAS-ΔN, residues 147–522, Supplementary Fig. 1b) in the presence of ISD (interferon stimulatory DNA, a 45-bp dsDNA), which was readily quantified by the RNA-based fluorescent biosensor and was further confirmed by ion exchange chromatography (Supplementary Fig. 1c). […] Subsequently, a total of 90 macrocyclic peptides were screened at a concentration of 20 μM (Fig. 1a and Supplementary Fig. 1e), and 4 hits (XQ2, XQ8, XQ19, and XQ46) were obtained for further testing at a cut-off of 40% inhibition (Supplementary Table 1). To evaluate the inhibitory effect of the hits against cGAS in cells, we employed real-time quantitative PCR (qPCR) to examine mRNA levels of IFNΒ1 in THP1 cells. The reported cGAS inhibitor RU.521 was used as the positive control, and the non-active peptide XQ28 in the screening assay was used as the negative control. […] The inhibition of cGAS by these hits was further confirmed in the reporter cell line THP1-Lucia ISG (Invivogen) that expresses secreted luciferase induced by an IRF3-inducible ISG54 promoter (Fig. 1c). The discrepancy between the inhibitory effect of the hits in protein and cellular assays may be attributed to their different cellular permeability.\n(§1) The indicated cells were stimulated with either ISD (Sangon Biotech), HSV-1 (Provided by Dr. Zhengfan Jiang), HSV60mer (Sangon Biotech), SATE-cddA[70], 2’3’-cGAMP (Invivogen, Cat# tlrl-nacga23-1), ADU-S100 (MedChemExpress, Cat# HY-12885A) or Poly(I:C) (Invivogen, Cat# tlrl-pic) after XQ2 or XQ2B treatment. Total RNA was isolated from indicated cells that incubated with the drugs for indicated time or mice tissues by using NucleoZOL reagent (MACHEREY-NAGEL) according to the manufacturer’s instructions. The quantifications of mRNA levels were carried out by real-time PCR using a PerfectStart® Uni RT&qPCR Kit (TransGen Biotech) on the QuantStudio 5 qPCR machine (Applied Biosystems). Samples were carried out in triplicate and the target CT values were normalized to GAPDH CT values. Primers of qPCR used in this study can be found in Supplementary Table S2."}, "[2]": {"system": "HSV-1-infected THP1 cells", "experiment": "qPCR of IFNB1/CXCL10/IL6 mRNA in THP1 cells stimulated by HSV-1 infection", "assay_type": "cell-based, human"}, "[3]": {"system": "HSV-1 in THP1 cells", "experiment": "HSV-1(UL5) mRNA by qPCR (virus infection of cells)", "assay_type": "cell-based, herpes simplex virus-1", "set-up": "key to HSV-1(UL5) mRNA, qPCR, Fig. 5d / HSV-1(UL5) mRNA (Fig. S8e): relative mRNA level, target CT normalized to GAPDH CT", "details": "for HSV-1(UL5) mRNA, qPCR, Fig. 5d: XQ2 10 μM", "description": "as §1"}, "[4]": {"system": "Jurkat cells", "description": "Cell viability was measured by cell counting kit-8 (TargetMol) according to the manufacturer’s instructions.\nSupplementary Fig. 3. […] (a) L929 cells were pretreated for\n4 h with DMSO or the indicated doses of XQ2, followed by stimulation with dsDNA for 4 h, and then cell lysates were\n(b) Jurkat cells were exposed to the indicated doses of XQ2, and then stimulated with\nData are representative of three independent experiments in (a, b). (Data are presented as mean ± SD, n = 3 independent\nprovided as a Source Data file.\n(1 picture or pasted object on this page, not shown here)"}},
  "note": "Where “and” joins values, the source holds several entries; their conditions need not be identical. Identical values can stand only once. Square brackets hold non-standard residues; d marks the D form. Peptide text beside a SMILES is read from it.",
  "data": [
    {"molecule": "CC(C)C[C@@H]1NC(=O)[C@H](CCCNC(=N)N)NC(=O)[C@H](C(C)C)NC(=O)[C@@H]2CCCN2C(=O)[C@@H](Cc2ccccc2)NC(=O)[C@H](CC(C)C)NC(=O)[C@H](CCCNC(=N)N)NC(=O)[C@H](C(C)C)NC(=O)[C@H](C)NC(=O)[C@@H](Cc2ccccc2)NC1=O", "note": "[XQ2, Cyclo (LfAVRLfPVR)] (cyclo(L[dF]AVRL[dF]PVR))", "values": [
      {"measurement": "cellular efficacy against cGAS", "setting": "[1]", "result": "< 10", "unit": "µM"},
      {"measurement": "CXCL10 mRNA (Fig. S2b)", "setting": "[2]; HSV-1, XQ2 0.31 μM", "result": "13697.8 and 18057.7 and 19972.6"},
      {"measurement": "IFNB1 mRNA (Fig. S2b)", "setting": "[2]; HSV-1, XQ2 0.31 μM", "result": "103.029 and 97.656 and 104.314"},
      {"measurement": "IL6 mRNA (Fig. S2b)", "setting": "[2]; HSV-1, XQ2 0.31 μM", "result": "94.9854 and 106.129 and 109.338"},
      {"measurement": "CXCL10 mRNA (Fig. S2b)", "setting": "[2]; HSV-1, XQ2 0.63 μM", "result": "14561.5 and 17791.3 and 14971.8"},
      {"measurement": "IFNB1 mRNA (Fig. S2b)", "setting": "[2]; HSV-1, XQ2 0.63 μM", "result": "91.2373 and 106.205 and 112.809"},
      {"measurement": "IL6 mRNA (Fig. S2b)", "setting": "[2]; HSV-1, XQ2 0.63 μM", "result": "98.3879 and 100.916 and 99.3832"},
      {"measurement": "CXCL10 mRNA (Fig. S2b)", "setting": "[2]; HSV-1, XQ2 1.25 μM", "result": "13878.7 and 14634.4 and 14561.7"},
      {"measurement": "IFNB1 mRNA (Fig. S2b)", "setting": "[2]; HSV-1, XQ2 1.25 μM", "result": "97.5861 and 86.027 and 97.3512"},
      {"measurement": "IL6 mRNA (Fig. S2b)", "setting": "[2]; HSV-1, XQ2 1.25 μM", "result": "83.7674 and 88.7511 and 90.6215"},
      {"measurement": "CXCL10 mRNA (Fig. S2b)", "setting": "[2]; HSV-1, XQ2 2.5 μM", "result": "11116.4 and 12643.3 and 12467.1"},
      {"measurement": "IFNB1 mRNA (Fig. S2b)", "setting": "[2]; HSV-1, XQ2 2.5 μM", "result": "73.1655 and 85.1476 and 97.1694"},
      {"measurement": "IL6 mRNA (Fig. S2b)", "setting": "[2]; HSV-1, XQ2 2.5 μM", "result": "59.5539 and 58.6936 and 59.7795"},
      {"measurement": "CXCL10 mRNA (Fig. S2b)", "setting": "[2]; HSV-1, XQ2 5 μM", "result": "4443.66 and 5989.75 and 4916.38"},
      {"measurement": "IFNB1 mRNA (Fig. S2b)", "setting": "[2]; HSV-1, XQ2 5 μM", "result": "58.3528 and 60.5599 and 78.4822"},
      {"measurement": "IL6 mRNA (Fig. S2b)", "setting": "[2]; HSV-1, XQ2 5 μM", "result": "37.2474 and 41.0154 and 36.4161"},
      {"measurement": "CXCL10 mRNA (Fig. S2b)", "setting": "[2]; HSV-1, XQ2 10 μM", "result": "610.463 and 931.698 and 780.881"},
      {"measurement": "IFNB1 mRNA (Fig. S2b)", "setting": "[2]; HSV-1, XQ2 10 μM", "result": "20.0242 and 25.5972 and 33.1577"},
      {"measurement": "CXCL10 mRNA (Fig. S2b)", "setting": "[2]; Mock, XQ2 0.31 μM", "result": "0.6255 and 0.7855 and 0.8542"},
      {"measurement": "IFNB1 mRNA (Fig. S2b)", "setting": "[2]; Mock, XQ2 0.31 μM", "result": "0.7527 and 0.6452 and 0.8722"},
      {"measurement": "IL6 mRNA (Fig. S2b)", "setting": "[2]; Mock, XQ2 0.31 μM", "result": "0.9875 and 1.125 and 1.458"},
      {"measurement": "CXCL10 mRNA (Fig. S2b)", "setting": "[2]; Mock, XQ2 0.63 μM", "result": "0.4588 and 0.432 and 0.4044"},
      {"measurement": "IFNB1 mRNA (Fig. S2b)", "setting": "[2]; Mock, XQ2 0.63 μM", "result": "0.713 and 0.5919 and 0.8053"},
      {"measurement": "IL6 mRNA (Fig. S2b)", "setting": "[2]; Mock, XQ2 0.63 μM", "result": "1.48 and 1.078 and 1.222"},
      {"measurement": "CXCL10 mRNA (Fig. S2b)", "setting": "[2]; Mock, XQ2 1.25 μM", "result": "1.308 and 1.359 and 1.615"},
      {"measurement": "IFNB1 mRNA (Fig. S2b)", "setting": "[2]; Mock, XQ2 1.25 μM", "result": "0.9026 and 1.107 and 1.382"},
      {"measurement": "CXCL10 mRNA (Fig. S2b)", "setting": "[2]; Mock, XQ2 2.5 μM", "result": "3.137 and 2.991 and 2.833"},
      {"measurement": "IFNB1 mRNA (Fig. S2b)", "setting": "[2]; Mock, XQ2 2.5 μM", "result": "1.426 and 1.751 and 1.799"},
      {"measurement": "IL6 mRNA (Fig. S2b)", "setting": "[2]; Mock, XQ2 2.5 μM", "result": "2.387 and 2.459 and 3.439"},
      {"measurement": "CXCL10 mRNA (Fig. S2b)", "setting": "[2]; Mock, XQ2 5 μM", "result": "1.923 and 2.134 and 2.246"},
      {"measurement": "IFNB1 mRNA (Fig. S2b)", "setting": "[2]; Mock, XQ2 5 μM", "result": "1.17 and 1.093 and 1.0788"},
      {"measurement": "CXCL10 mRNA (Fig. S2b)", "setting": "[2]; Mock, XQ2 10 μM", "result": "4.593 and 4.941 and 4.3739"},
      {"measurement": "IFNB1 mRNA (Fig. S2b)", "setting": "[2]; Mock, XQ2 10 μM", "result": "1.523 and 2.285 and 2.284"},
      {"measurement": "IL6 mRNA (Fig. S2b)", "setting": "[2]; Mock, XQ2 10 μM", "result": "4.656 and 4.111 and 3.925"},
      {"measurement": "HSV-1-induced IFNB1, CXCL10, IL6 expression", "setting": "[2]; THP1", "result": "inhibited the expression level of IFNΒ1 and CXCL10, as well as IL6"},
      {"measurement": "IFNB1 mRNA, qPCR, Fig. 2b", "setting": "[2]; THP1, HSV-1, 10 μM", "result": "17.701 and 20.2819 and 20.0106"},
      {"measurement": "HSV-1 infection of THP1 cells, HSV1(UL5) mRNA", "setting": "[3]; 10 μM", "result": "substantially facilitated HSV-1 infection of THP1 cells"},
      {"measurement": "HSV-1(UL5) mRNA, qPCR, Fig. 5d", "setting": "[3]; HSV-1(1×104)24h", "result": "1.256 and 1.311 and 1.284"},
      {"measurement": "HSV-1(UL5) mRNA, qPCR, Fig. 5d", "setting": "[3]; HSV-1(1×104)48h", "result": "9.927 and 7.927 and 10.0304"},
      {"measurement": "HSV-1(UL5) mRNA, qPCR, Fig. 5d", "setting": "[3]; HSV-1(2×104)24h", "result": "4.976 and 4.739 and 4.656"},
      {"measurement": "HSV-1(UL5) mRNA, qPCR, Fig. 5d", "setting": "[3]; HSV-1(2×104)48h", "result": "18.9511 and 21.7278 and 21.8028"},
      {"measurement": "ISD-induced cell death", "setting": "[4]", "result": "markedly suppressed ISD-induced cell death"}
    ]}
  ]
}
